Reference: US12655116B2, “Substituted isophthalic acid diamides” (Bayer Aktiengesellschaft, priority 2020, dated 2026)

Experiments:
AVEFA [1] = experiment: Post-emergence herbicidal action against AVEFA; format: in vivo, Avena fatua; settings: 20 g/ha, visual assessment about 3 weeks after treatment, 100% = plants have died, 0% = like control plants
Outline: (§1)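 Sandy loam, greenhouse; treatment 2–3 weeks after sowing, one-leaf stage. Aqueous suspension or emulsion from WP/EC sprayed on foliage (600–800 l/ha, 0.2% wetting agent). Readout: visual % action, ~3 weeks.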

DIGSA [2] = experiment: Pre-emergence herbicidal action against DIGSA; format: in vivo, Digitaria sanguinalis
Outline: (§2)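 Seeds sown in sandy loam, soil-covered; compound sprayed on soil surface pre-emergence. Application: WP/EC, 600–800 l/ha, 0.2% wetting agent. Readout: visual % damage at 3 weeks.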

PHBPU [3] = experiment: Post-emergence herbicidal action against PHBPU; format: in vivo, Pharbitis purpurea
Outline: as §1

ALOMY [4] = experiment: Pre-emergence herbicidal action against ALOMY; format: in vivo, Alopecurus myosuroides; settings: pre-emergence
Outline: as §2

MATIN [5] = experiment: Pre-emergence herbicidal action against MATIN; format: in vivo, Matricaria inodora
Outline: as §2

VIOTR [6] = experiment: Pre-emergence herbicidal action against VIOTR; format: in vivo, Viola tricolor
Outline: as §2

ECHCG [7] = experiment: Pre-emergence herbicidal action against ECHCG; format: in vivo, Echinochloa crus-galli; settings: 80 g/ha
Outline: as §2

PHBPU [8] = experiment: Pre-emergence herbicidal action against PHBPU; format: in vivo, Pharbitis purpurea
Outline: as §2

ABUTH [9] = experiment: Post-emergence herbicidal action against ABUTH; format: in vivo, Abutilon theophrasti; settings: visual assessment about 3 weeks after treatment vs untreated controls
Outline: as §1

VIOTR [10] = experiment: Post-emergence herbicidal action against VIOTR; format: in vivo, Viola tricolor; settings: 20 g/ha
Outline: as §1

MATIN [11] = experiment: Post-emergence herbicidal action against MATIN; format: in vivo, Matricaria inodora
Outline: as §1

ECHCG [12] = experiment: Post-emergence herbicidal action against ECHCG; format: in vivo, Echinochloa crus-galli
Outline: as §1

SETVI [13] = experiment: Pre-emergence herbicidal action against SETVI; format: in vivo, Setaria viridis
Outline: as §2

AMARE [14] = experiment: Post-emergence herbicidal action against AMARE; format: in vivo, Amaranthus retroflexus; settings: 20 g/ha, visual assessment about 3 weeks after treatment, 100% = plants have died, 0% = like control plants
Outline: as §1

VERPE [15] = experiment: Pre-emergence herbicidal action against VERPE; format: in vivo, Veronica persica
Outline: as §2

DIGSA [16] = experiment: Post-emergence herbicidal action against DIGSA; format: in vivo, Digitaria sanguinalis; settings: 20 g/ha
Outline: as §1

AMARE [17] = experiment: Pre-emergence herbicidal action against AMARE; format: in vivo, Amaranthus retroflexus
Outline: as §2

ABUTH [18] = experiment: Pre-emergence herbicidal action against ABUTH; format: in vivo, Abutilon theophrasti
Outline: as §2

AVEFA [19] = experiment: Pre-emergence herbicidal action against AVEFA; format: in vivo, Avena fatua; settings: pre-emergence
Outline: as §2

VERPE [20] = experiment: Post-emergence herbicidal action against VERPE; format: in vivo, Veronica persica; settings: 20 g/ha
Outline: as §1

LOLRI = experiment: Pre-emergence herbicidal action against LOLRI; format: in vivo, Lolium rigidum; settings: 80 g/ha
Outline: as §2

SETVI [21] = experiment: Post-emergence herbicidal action against SETVI; format: in vivo, Setaria viridis; settings: Setaria viridis, 504 h
Outline: as §1

ALOMY [22] = experiment: Post-emergence herbicidal action against ALOMY; format: in vivo, Alopecurus myosuroides; settings: Alopecurus myosuroides, 504 h, visual assessment about 3 weeks after treatment vs untreated controls
Outline: as §1

[23] = 80 g/ha, scored visually after 3 weeks vs untreated controls (100% = plants have died, 0% = like control plants)
[24] = Ipomoea purpurea, 504 h, dosage 20 g/ha
[25] = Tripleurospermum inodorum, 504 h, dosage 20 g/ha

CCn1nnnc1NC(=O)c1ccc(C(F)(F)F)c(C(=O)NC(C)C2CC2)c1Cl (stereo not shown) [Example 2-135]
Post-emergence action at 20 g/ha against AVEFA in % (AVEFA [1]): 80% | Pre-emergence action against DIGSA in % (DIGSA [2]; dosage 20 g/ha): 100% | Pre-emergence action against DIGSA in % (DIGSA [2]; dosage 80 g/ha): 100% | Post-emergence action against PHBPU in % (PHBPU [3]; dosage 5 g/ha): 80% | Post-emergence action against PHBPU in % (PHBPU [3]; dosage 20 g/ha): 80% | Pre-emergence action against ALOMY (herbicidal activity) (ALOMY [4]; [23]): 90% | Pre-emergence action against MATIN in % (MATIN [5]; dosage 20 g/ha): 90% | Pre-emergence action against MATIN in % (MATIN [5]; dosage 80 g/ha): 100% | Pre-emergence action against VIOTR in % (VIOTR [6]; dosage 20 g/ha): 100% | Pre-emergence action against VIOTR in % (VIOTR [6]; dosage 80 g/ha): 100% | Pre-emergence action against ECHCG in % (ECHCG [7]): 100% | Pre-emergence action against PHBPU in % (PHBPU [8]; dosage 80 g/ha): 80% | Post-emergence action against ABUTH in % (ABUTH [9]; dosage 20 g/ha): 80% | Post-emergence action against VIOTR in % (VIOTR [10]): 90% | Post-emergence action against MATIN in % (MATIN [11]; dosage 5 g/ha): 90% | Post-emergence action against MATIN in % (MATIN [11]; dosage 20 g/ha): 90% | Post-emergence action against ECHCG in % (ECHCG [12]; dosage 5 g/ha): 80% | Post-emergence action against ECHCG in % (ECHCG [12]; dosage 20 g/ha): 90% | Pre-emergence action against SETVI in % (SETVI [13]; dosage 80 g/ha): 100% | Post-emergence action at 20 g/ha against AMARE in % (AMARE [14]): 90% | Pre-emergence action against VERPE in % (VERPE [15]; dosage 80 g/ha): 100% | Post-emergence action against DIGSA (DIGSA [16]): 80% | Pre-emergence action against AMARE in % (AMARE [17]; 20 g/ha, scored visually after 3 weeks vs untreated controls, 100% = plants have died, 0% = like control plants): 100% | Pre-emergence action against AMARE in % (AMARE [17]; [23]): 100% | Pre-emergence action against ABUTH (herbicidal activity) (ABUTH [18]; [23]): 100% | Pre-emergence action against ABUTH (herbicidal activity in percent) (ABUTH [18]; dosage 20 g/ha, scored visually after 3 weeks vs untreated controls, 100% = plants have died, 0% = like control plants): 100% | Pre-emergence action against AVEFA in % (AVEFA [19]; 80 g/ha): 90% | Post-emergence action against VERPE in % (VERPE [20]): 90% | Pre-emergence action against LOLRI in % (LOLRI): 80%

CCn1nnnc1NC(=O)c1ccc(C(F)(F)F)c(C(=O)NC(C)C)c1C [Example 2-33]
pest or weed control at 20 g/ha (AVEFA [1]; Avena fatua, 504 h): 100% | pest or weed control at 20 g/ha (DIGSA [2]; Digitaria sanguinalis, 504 h, dosage 20 g/ha): 100% | pest or weed control at 80 g/ha (DIGSA [2]; Digitaria sanguinalis, 504 h, dosage 80 g/ha): 100% | pest or weed control at 20 g/ha (PHBPU [3]; [24]): 90% | pest or weed control at 5 g/ha (SETVI [21]; dosage 5 g/ha): 80% | pest or weed control at 20 g/ha (SETVI [21]; dosage 20 g/ha): 100% | pest or weed control at 80 g/ha (ALOMY [4]; Alopecurus myosuroides, 504 h, 80 g/ha, scored visually after 3 weeks vs untreated controls (100% = plants have died, 0% = like control plants)): 100% | pest or weed control at 20 g/ha (ALOMY [4]; Alopecurus myosuroides, 504 h, 20 g/ha, scored visually after 3 weeks, 100% = plants have died, 0% = like control plants): 90% | pest or weed control at 20 g/ha (MATIN [5]; [25]): 100% | pest or weed control at 80 g/ha (MATIN [5]; Tripleurospermum inodorum, 504 h, dosage 80 g/ha): 100% | pest or weed control at 20 g/ha (VIOTR [6]; Viola tricolor, 504 h, dosage 20 g/ha): 100% | pest or weed control at 80 g/ha (VIOTR [6]; Viola tricolor, 504 h, dosage 80 g/ha): 100% | pest or weed control at 80 g/ha (ECHCG [7]; Echinochloa crus-galli, 504 h): 100% | pest or weed control at 20 g/ha (PHBPU [8]; [24]): 80% | pest or weed control at 80 g/ha (PHBPU [8]; Ipomoea purpurea, 504 h, dosage 80 g/ha): 80% | pest or weed control at 5 g/ha (ABUTH [9]; Abutilon theophrasti, 504 h, dosage 5 g/ha): 90% | pest or weed control at 20 g/ha (ABUTH [9]; Abutilon theophrasti, 504 h, dosage 20 g/ha): 90% | pest or weed control at 5 g/ha (MATIN [11]; Tripleurospermum inodorum, 504 h, dosage 5 g/ha): 90% | pest or weed control at 20 g/ha (MATIN [11]; [25]): 90% | pest or weed control at 5 g/ha (ECHCG [12]; Echinochloa crus-galli, 504 h, dosage 5 g/ha): 90% | pest or weed control at 20 g/ha (ECHCG [12]; Echinochloa crus-galli, 504 h, dosage 20 g/ha): 100% | pest or weed control at 5 g/ha (ALOMY [22]; dosage 5 g/ha): 90% | pest or weed control at 20 g/ha (ALOMY [22]; dosage 20 g/ha): 100% | pest or weed control at 20 g/ha (SETVI [13]; Setaria viridis, 504 h, dosage 20 g/ha): 80% | pest or weed control at 80 g/ha (SETVI [13]; Setaria viridis, 504 h, dosage 80 g/ha): 100% | pest or weed control at 20 g/ha (AMARE [14]; Amaranthus retroflexus, 504 h): 100% | pest or weed control at 20 g/ha (VERPE [15]; Veronica persica, 504 h, dosage 20 g/ha): 80% | pest or weed control at 80 g/ha (VERPE [15]; Veronica persica, 504 h, dosage 80 g/ha): 90% | pest or weed control at 20 g/ha (AMARE [17]; Amaranthus retroflexus, 504 h, 20 g/ha, scored visually after 3 weeks vs untreated controls, 100% = plants have died, 0% = like control plants): 100% | pest or weed control at 80 g/ha (AMARE [17]; Amaranthus retroflexus, 504 h, 80 g/ha, scored visually after 3 weeks vs untreated controls, 100% = plants have died, 0% = like control plants): 100% | pest or weed control at 80 g/ha (ABUTH [18]; Abutilon theophrasti, 504 h, 80 g/ha, scored visually after 3 weeks vs untreated controls (100% = plants have died, 0% = like control plants)): 100% | pest or weed control at 20 g/ha (ABUTH [18]; Abutilon theophrasti, 504 h, dosage 20 g/ha, scored visually after 3 weeks vs untreated controls, 100% = plants have died, 0% = like control plants, read-out: Pre-emergence action against ABUTH (herbicidal activity in percent)): 100% | pest or weed control at 80 g/ha (AVEFA [19]; Avena fatua, 504 h, 80 g/ha): 90% | pest or weed control at 20 g/ha (AVEFA [19]; Avena fatua, 504 h, 20 g/ha, scored visually after 3 weeks, 100% = plants have died, 0% = like control plants): 80% | pest or weed control at 80 g/ha (LOLRI; Lolium rigidum, 504 h): 80%
